Experimental data published in patent US20240050385A1, “METHODS OF TREATING LEPTOMENINGEAL METASTASIS” (MEMORIAL SLOAN-KETTERING CANCER CENTER, priority 2020, published 2024).
Entries after “also recorded” stand apart in the source; their conditions may differ. Structures can show the parent of a compound that is named as a salt.

Test system: LeptoM cells
Assay: Iron Assay, chelation assay in vitro (intracellular iron)
Format: cell-based, human
Settings: PC9-LeptoM and MDA231-LeptoM cells; 0, 1, 10, 100 μM; in words
Description: FIG. 16A-16L. Iron chelator treatment reduces CSF iron. (A) Experimental scheme. Mice were inoculated with 2×10^3 cells intrathecally on day 0. Treatment with either vehicle, DFO, or D-pen was commenced on either day 1 or day 7 and continued every third day for a total of 7 doses. (B) Chelators delivered intrathecally. DFO, Deferoxamine. D-Pen, D-Penicillamine. (C-F) Intracellular iron (C and E) and viability (D and F) of PC9-LeptoM cells and MDA231-LeptoM cells after treatment with chelators in different concentrations (0 μM, 1 μM, 10 μM and 100 μM). n=3-4 per group in each of two independent experiments. * indicates p<0.05, ** indicates p<0.01, ***indicates p<0.001, **** indicates p<0.0001 (unpaired t test). Data represent mean±SEM. (G) Growth of PC9-LeptoM tumor after treatment indicated in (A). Left: in vivo BLI imaging in day 28 post-inoculation. n=8-10 per group in each of two independent experiments. Right: Representative BLI images. **** indicates p<0.0001. Data represent mean±SEM. (H) Kaplan-Meier survival curve from (C) and (E). p<0.0001. (I and J) Total iron concentration measured in CSF samples of mice with treatment of chelators in PC9-LeptoM Model (I) in MDA231-LeptoM model (J). […]
Iron Assay. […] The Iron Assay Kit (Sigma-Aldrich, MAK025) was used to quantify total iron in the intracellular contents and culture supernatant following the manufacturer's protocols. […]

**Q.** `CC(=O)N(O)CCCCCNC(=O)CCC(=O)N(O)CCCCCNC(=O)CCC(=O)N(O)CCCCCN` [DFO, Deferoxamine mesylate] was tested. Which “iron levels within the LeptoM cells” value did it give?
**A.** The value was “substantially suppressed; also recorded: dramatically suppressed”.
